Calls of active or inactive are those of the source. No rule for the calls is given here. A value given as a limit tells only on which side of the number the result lay.

This assay addresses T1, Exodeoxyribonuclease V (Escherichia coli (strain K12), UniProt P04993+P07648+P08394).
T1 sequence (P04993 whole entry): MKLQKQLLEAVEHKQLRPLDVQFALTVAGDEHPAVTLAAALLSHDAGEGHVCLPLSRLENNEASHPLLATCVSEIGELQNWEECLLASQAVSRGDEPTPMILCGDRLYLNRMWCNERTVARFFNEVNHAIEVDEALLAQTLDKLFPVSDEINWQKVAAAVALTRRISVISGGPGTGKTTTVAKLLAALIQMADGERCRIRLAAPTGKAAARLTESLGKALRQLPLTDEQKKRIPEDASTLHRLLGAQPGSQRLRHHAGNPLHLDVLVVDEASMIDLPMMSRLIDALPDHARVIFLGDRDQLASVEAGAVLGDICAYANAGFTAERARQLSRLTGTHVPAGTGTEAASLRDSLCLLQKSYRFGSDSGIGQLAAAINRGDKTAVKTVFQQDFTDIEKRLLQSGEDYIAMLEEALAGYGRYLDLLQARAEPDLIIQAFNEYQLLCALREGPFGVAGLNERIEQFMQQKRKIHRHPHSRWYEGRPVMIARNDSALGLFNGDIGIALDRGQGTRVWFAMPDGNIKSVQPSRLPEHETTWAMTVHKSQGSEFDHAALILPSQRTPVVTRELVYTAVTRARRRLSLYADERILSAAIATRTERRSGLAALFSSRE
T1 sequence (P07648 whole entry): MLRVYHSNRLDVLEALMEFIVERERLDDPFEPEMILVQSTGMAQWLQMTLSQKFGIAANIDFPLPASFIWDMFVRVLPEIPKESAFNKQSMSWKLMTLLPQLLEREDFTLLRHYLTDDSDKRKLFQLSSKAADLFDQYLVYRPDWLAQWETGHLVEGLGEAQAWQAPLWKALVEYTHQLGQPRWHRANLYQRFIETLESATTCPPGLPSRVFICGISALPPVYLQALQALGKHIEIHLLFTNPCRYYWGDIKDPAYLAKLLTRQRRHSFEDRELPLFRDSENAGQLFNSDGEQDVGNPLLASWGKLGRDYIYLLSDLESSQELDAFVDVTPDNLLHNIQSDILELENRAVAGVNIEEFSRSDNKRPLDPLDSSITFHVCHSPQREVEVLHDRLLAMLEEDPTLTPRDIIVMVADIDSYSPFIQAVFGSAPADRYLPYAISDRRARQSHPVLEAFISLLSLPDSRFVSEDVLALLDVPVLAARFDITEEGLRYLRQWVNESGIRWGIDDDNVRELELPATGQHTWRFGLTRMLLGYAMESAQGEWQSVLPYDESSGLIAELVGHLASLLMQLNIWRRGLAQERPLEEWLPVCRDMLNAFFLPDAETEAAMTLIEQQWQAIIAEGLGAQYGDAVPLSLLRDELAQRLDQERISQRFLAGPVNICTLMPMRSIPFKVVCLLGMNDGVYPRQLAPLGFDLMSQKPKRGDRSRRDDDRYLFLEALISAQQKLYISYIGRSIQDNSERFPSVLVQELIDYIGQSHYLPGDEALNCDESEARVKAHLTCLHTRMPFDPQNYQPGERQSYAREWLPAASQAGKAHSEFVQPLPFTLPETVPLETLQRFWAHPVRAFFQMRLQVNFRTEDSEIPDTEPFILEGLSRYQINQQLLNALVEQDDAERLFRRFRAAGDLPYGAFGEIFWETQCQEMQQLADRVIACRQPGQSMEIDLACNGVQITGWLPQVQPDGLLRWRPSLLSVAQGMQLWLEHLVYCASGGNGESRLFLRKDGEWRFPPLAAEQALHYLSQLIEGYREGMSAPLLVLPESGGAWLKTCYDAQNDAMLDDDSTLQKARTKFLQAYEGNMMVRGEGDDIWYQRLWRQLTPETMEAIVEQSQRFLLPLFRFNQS
T1 sequence (P08394 whole entry): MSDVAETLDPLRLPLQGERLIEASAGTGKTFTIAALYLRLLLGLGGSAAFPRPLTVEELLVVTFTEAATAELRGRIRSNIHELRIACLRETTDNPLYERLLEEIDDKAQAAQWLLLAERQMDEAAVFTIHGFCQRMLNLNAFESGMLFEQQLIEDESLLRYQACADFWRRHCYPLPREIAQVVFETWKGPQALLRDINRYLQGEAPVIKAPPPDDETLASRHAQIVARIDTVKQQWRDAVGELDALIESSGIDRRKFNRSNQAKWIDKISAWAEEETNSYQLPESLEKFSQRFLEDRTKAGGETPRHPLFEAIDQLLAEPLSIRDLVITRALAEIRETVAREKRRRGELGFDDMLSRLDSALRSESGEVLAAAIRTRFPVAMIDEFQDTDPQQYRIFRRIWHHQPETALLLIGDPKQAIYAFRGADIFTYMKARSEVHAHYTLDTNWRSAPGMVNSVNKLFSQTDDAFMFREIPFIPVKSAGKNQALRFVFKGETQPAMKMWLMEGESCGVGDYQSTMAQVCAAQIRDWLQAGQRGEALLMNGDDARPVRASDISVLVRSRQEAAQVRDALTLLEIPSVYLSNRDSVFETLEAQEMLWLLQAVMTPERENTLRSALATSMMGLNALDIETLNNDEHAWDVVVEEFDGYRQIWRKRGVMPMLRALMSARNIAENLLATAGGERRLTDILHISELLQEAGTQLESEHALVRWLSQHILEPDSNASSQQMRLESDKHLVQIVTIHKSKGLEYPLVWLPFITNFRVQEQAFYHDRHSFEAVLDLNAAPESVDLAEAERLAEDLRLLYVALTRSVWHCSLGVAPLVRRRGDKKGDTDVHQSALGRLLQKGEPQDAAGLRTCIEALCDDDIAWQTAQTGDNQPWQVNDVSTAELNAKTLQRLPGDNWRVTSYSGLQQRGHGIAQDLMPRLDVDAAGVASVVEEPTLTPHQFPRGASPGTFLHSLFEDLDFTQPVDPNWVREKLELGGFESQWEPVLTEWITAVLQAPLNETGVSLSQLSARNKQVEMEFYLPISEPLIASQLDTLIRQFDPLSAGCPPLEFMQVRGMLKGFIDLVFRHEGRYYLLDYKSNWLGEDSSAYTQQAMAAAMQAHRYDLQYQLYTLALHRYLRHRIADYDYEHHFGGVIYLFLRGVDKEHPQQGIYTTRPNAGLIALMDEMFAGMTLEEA
The experiment in a line: E. coli RecBCD inhibitors, dose response, counter-screen for AddAB inhibitor project, absorbance, V66 E. coli, mutant T4 phage (AID 492957). The class given is functional, cell-based, Escherichia coli str. K-12 substr. MG1655.

As for `CCSc1nsc(NC(=O)Nc2cccc(F)c2)n1`, the IC50 was > 119 µM (inactive).
With `O=[N+]([O-])c1ccc(/C=N/n2cnc3ccccc32)s1` the figure was > 119 µM (inactive).
